In US9550802B2, “Anti-inflammatory macrolides” (priority 2012, dated 2017):

Columns and labels:
[1] = test system: CF human primary airway epithelial cells (CF hAEC); experiment: Stimulation of chloride release (Cl efflux, SPQ fluorescence) in cystic fibrosis cells; assay type: cell-based; conditions: 10 μM; CF hAEC or non-CF (S9) cells
Experimental: CF human primary airway epithelial cells (CF hAEC) on non-CF (S9) were cultured in the presence of compound 1 or azithromycin 10 μM. Cl efflux was monitored by fluorescence of [6-methoxy-N-(3-sulfopronyl)-quinolinium (SPQ).

[2] = Titration of macrolide with organic acid in saline; assay type: physicochemical; conditions: for Vol. Added (mL) Score = 4: acid solution 10 mg/mL in saline added until fully dissolved; for End conc. macrolide: after titration
Experimental: After each addition, the mixture or solution was placed in the ultrasonic bath for 10 minutes followed by agitation for an additional 10 minutes. The mixtures were given a visual score depending on the presence of precipitate in the mixture (0 to 4, 0 being undissolved and 4 being fully-dissolved) and the pH of the supernatant fluid was measured.

[3] = Maximum solubility determination of organic salts in saline; assay type: physicochemical; conditions: for Visual Score: score 0 to 4
Experimental: The mixtures were given a visual score depending on the presence of precipitate in the mixture (Score ranges from 0 to 4, with 0 showing undissolved solid precipiate and 4 being fully-dissolved). Solubility of the salts was tested in 10 mM, 100 mM, 500 mM and 1M.

[4] = macrolide (not named) + acid equivalent of organic acid in saline, 100 mM
[5] = macrolide (not named) + acid equivalent of organic acid in saline, 500 mM
[6] = macrolide (not named) + acid equivalent of organic acid in saline, 1M

Row | SMILES | Cl efflux as determined by fluorescence change (SPQ) [1] | Amt acid added to dissolve ([2]; 10 mM COMPOUND 1 in saline) [mg] | Amt corr. to mol eq. ([2]; 10 mM COMPOUND 1 in saline) [mg] | mol. eq. acid (minimum mole equivalence of acid needed to dissolve) ([2]; 10 mM COMPOUND 1 in saline) [mol. eq.] | Vol. Added (mL) Score = 4 ([2]; 10 mM COMPOUND 1 in saline) [mL] | End conc. macrolide ([2]; COMPOUND 1 in saline) [mM] | End conc. macrolide ([2]; azithromycin in saline) [mM] | Amt acid added to dissolve ([2]; azithromycin, 10 mM in saline) [mg] | Amt corr. to mol eq. ([2]; azithromycin, 10 mM in saline) [mg] | mol. eq. acid (minimum mole equivalence of acid needed to dissolve) ([2]; azithromycin, 10 mM in saline) [mol. eq.] | Vol. Added (mL) Score = 4 ([2]; azithromycin, 10 mM in saline) [mL] | pH ([3]; macrolide (not named) + acid equivalent of organic acid in saline (0.9% aq. NaCl), 10 mM) | Visual Score ([3]; macrolide (not named) + acid equivalent of organic acid in saline, 10 mM) | pH [3, 4] | Visual Score [3, 4] | pH [3, 5] | Visual Score [3, 5] | pH [3, 6] | Visual Score [3, 6]
1 | CC[C@H]1OC(=O)[C@H](C)[C@@H](O[C@H]2C[C@@](C)(OC)[C@@H](O)[C@H](C)O2)[C@H](C)[C@@H](O[C@@H]2O[C@H](C)C[C@H](N(C)C)[C@H]2O)[C@](C)(O)C[C@@H](C)CN(C)[C@H](C)[C@@H](O)[C@]1(C)O [azithromycin] | stimulate Cl efflux | – | – | – | – | – | – | – | – | – | – | – | – | – | – | – | – | – | –
2 | O=C(O)CC(=O)C(=O)O [oxaloacetatic acid] | – | 4.00 | 4.00 | 0.64 | 0.40 | 9.2 | 8.7 | 8.00 | 8.00 | 1.10 | 0.80 | – | – | – | – | – | – | – | –
3 | O=C(O)CCCCCCC(=O)O [subaric acid] | – | 8.30 | 8.30 | 1.05 | – | 10.0 | 10.0 | 6.70 | 6.70 | 0.70 | – | 6.8 | 4 | 5.5 | 4 | 8.0 | 4 | 10.0 | 2
